In brackets after ≈: the same amount, converted by molar mass. Entries after “also recorded” stand apart in the source; their conditions may differ. Like-named read-outs stand apart in the source and are kept apart here.
Columns and labels:
Staph.Aureus [1] = assay: Minimal bactericidal activity (MBC) in milk, field isolates; format: cell-based; settings: Staphylococcus aureus, in milk at pH 7.2 - 7.4
Text: (§1) The activity of some of said nitrofuryl quinolines derivatives against Strep.uberis and Stap.Aureus in milk has been compared with the activity of some of the compounds so far utilised in the treatment of bovine mastitis. The results are shown in Table I. (The nitrofuryl quinoline derivatives have general formula [drawing 1] the meaning of R, A, R', B, Y, X and Z being given in the Table. R1 =O whenever indicated then the N-oxide is concerned; NF stands for nitrofuryl)
(§2) Minimal Bactericidal/Activity (MBC) of representative Nitrofuryl
(§3) in mcg/ml in milk at pH 7.2 - 7.4. Versus Standards (Field

Strep.uberis = assay: as above; format: cell-based; settings: Streptococcus uberis, in milk at pH 7.2 - 7.4
Text: as §1, §2, §3

[2] = tested on: Strep.uberis and Stap.Aureus; assay: Activity against mastitis bacteria in presence of milk (Table I, summary in words); format: cell-based
Text: as §1

[3] = Residue of active compound in milk of the cow; format: in vivo; settings: 500 mg in 7 ml P.E.G. base; for concentration at 24 h / concentration at 32 h: bovine, milk
Protocol: Said four compounds were then tested for the length of time they could be detected in the milk of the cow. For this purpose 500 mg in 7 ml of a polyethylene glycol (P.E.G.) base of each compound were administered to several cows and the residue of active compound in milk were measured in mcg/ml after 24, 32 and 40 hours respectively.

udder = assay: Number of leucocytes (somatic cells) in milk / irritation of the udder; format: in vivo, cow; settings: for number of leucocytes (sematic cells) in milk, 40 hrs.: 40 hrs after 500 mg in 7 ml P.E.G. base; for number of leucocytes (sematic cells) in milk, 48 hrs.: 48 hrs after 500 mg in 7 ml P.E.G. base; for number of leucocytes (sematic cells) in milk, 56 hrs.: 56 hrs after 500 mg in 7 ml P.E.G. base; for number of leucocytes (sematic cells) in milk, before: before administration (baseline)
Protocol: Thereafter 500 mg of each of said compounds in 7 ml of a P.E.G. base and also 7 ml of said base above were administered to several cows and the number of leucocytes (sematic cells) in 10^6 per ml of milk were measured before administration and 40, 48 and 56 hours thereafter. The numbers of leucocytes present indicate the degree of irritation of the udder.

LD50 mice = settings: mouse, in vivo
LD50 rats = settings: rat, in vivo
C.pyogenes = assay: Sensitivity of udder pathogens in milk, serial dilution; format: cell-based; settings: 24 hours, 3 strains
Protocol: (§4) This indication was verified by testing in vitro by the method of serial dilution the sensitivity of said compound against udder pathogens in milk in various concentrations measured in meg/ml of milk. The number of strains which were killed at each concentration were measured after 24 hours.

Enterococci = assay: as above; format: cell-based; settings: 24 hours, 8 strains
Protocol: as §4

Staph.Aureus [4] = assay: as above; format: cell-based; settings: 24 hours, 86 strains
Protocol: as §4

Str.agalactiac = assay: as above; format: cell-based; settings: 24 hours, 34 strains
Protocol: as §4

Str.dysgalactiae = assay: as above; format: cell-based; settings: 24 hours, 18 strains
Protocol: as §4

Str.uberis = assay: as above; format: cell-based; settings: 24 hours, 32 strains
Protocol: as §4

Steph.aureus = assay: Efficiency test in cows suffering from bovine mastitis; format: in vivo, cow; settings: 2 doses, 24 hours interval
Protocol: In has been shown that said range is effectful by an efficiency test in which various doses of 4-(5-nitrofuryl)-.quinaldinic acid N-oxide were administered to cows suffering from bovine mastitis. There were adminstered 2 doses in intervals of 24 hours. The results are shown in Table V in cured quarters/treated quarters.

Str.dysgal. = assay: as above; format: in vivo, cow; settings: 2 doses, 24 hours interval
Str.uberls = assay: as above; format: in vivo, cow; settings: 2 doses, 24 hours interval
[5] = field isolate 2337, read-out: Minimal Bactericidal Activity (MBC), Staph.Aureus 2337
[6] = field isolate 2372, read-out: Minimal Bactericidal Activity (MBC), Staph.Aureus 2372
[7] = field isolate 60B, read-out: Minimal Bactericidal Activity (MBC), Strep.uberis 60B
[8] = field isolate 127A, read-out: Minimal Bactericidal Activity (MBC), Strep.uberis 127A
[9] = 25 meg/ml of milk (so in the source)

For `CCOc1ccc2c(-c3ccc([N+](=O)[O-])o3)cc(C(=O)O)[n+]([O-])c2c1` [Compound 26], the MBC (Staph.Aureus [1]; [5]) was 1 µg/mL (≈ 2.9 µM), the MBC (Staph.Aureus [1]; [6]) was 1 µg/mL (≈ 2.9 µM) and the MBC (Strep.uberis; [7]) was 0.03 µg/mL (≈ 0.0871 µM). For the same compound, the MBC (Strep.uberis; [8]) was 1 µg/mL (≈ 2.9 µM), the “activity in presence of milk (in words)” value [2] was “significant activity in milk” and the concentration at 24 h [3] was 12000 ng/mL. For the same compound, the concentration at 32 h [3] was 5000 ng/mL, the “number of leucocytes (sematic cells) in milk, 40 hrs.” value (shortened to “number of leucocytes … 40 hrs.”) (udder) was > 7.5 10^6 per ml and the “number of leucocytes (sematic cells) in milk, 48 hrs.” value (from here on “number of leucocytes … 48 hrs.”) (udder) was 3 10^6 per ml. For the same compound, the “number of leucocytes (sematic cells) in milk, 56 hrs.” value (“number of leucocytes … 56 hrs.” for short) (udder) was 2.65 10^6 per ml and the “number of leucocytes (sematic cells) in milk, before” value (“number of leucocytes … before” for short) (udder) was 0.22 10^6 per ml.

`O=C(O)c1cc(-c2ccc([N+](=O)[O-])o2)c2ccccc2[n+]1[O-]` [Compound 1, 2-carboxy-4-[2'-(5'-nitrofuryl)]quinoline N-oxide] showed an MBC (Staph.Aureus [1]; [5]) of 0.5 µg/mL (≈ 1.67 µM), an MBC (Staph.Aureus [1]; [6]) of 0.25 µg/mL (≈ 0.833 µM) and an MBC (Strep.uberis; [7]) of 0.015 µg/mL (≈ 0.05 µM). The MBC (Strep.uberis; [8]) was 0.25 µg/mL (≈ 0.833 µM), the “activity in presence of milk (in words)” value [2] was “significant activity in milk; also recorded: the most active one” and the “time remaining in the milk (in words)” value [3] was “remained the shortest time in the milk”. The concentration at 24 h [3] was 9800 ng/mL, the “irritation of the udder (in words)” value (udder; 500 mg in 7 ml P.E.G. base) was “caused the lowest irritation” and the “number of leucocytes … 40 hrs.” value (udder) was 0.95 10^6 per ml. The “number of leucocytes … 48 hrs.” value (udder) was 1.5 10^6 per ml, the “number of leucocytes … 56 hrs.” value (udder) was 0.95 10^6 per ml and the “number of leucocytes … before” value (udder) was 0.28 10^6 per ml. The LD50 (LD50 mice) was 3000 mg/kg, the LD50 (LD50 rats) was 1600 mg/kg and the “number of strains killed” value (C.pyogenes; 0.62 meg/ml of milk) was 1 strains. For the same compound, the “number of strains killed” value (C.pyogenes; 1.25 meg/ml of milk) was 2 strains, the “number of strains killed” value (Enterococci; 0.04 meg/ml of milk) was 2 strains and the “number of strains killed” value (Enterococci; 0.08 meg/ml of milk) was 3 strains. The “number of strains killed” value (Enterococci; 0.16 meg/ml of milk) was 2 strains, the “number of strains killed” value (Enterococci; 0.31 meg/ml of milk) was 1 strains and the “number of strains killed” value (Staph.Aureus [4]; 0.16 meg/ml of milk) was 4 strains. For the same compound, the “number of strains killed” value (Staph.Aureus [4]; 0.31 meg/ml of milk) was 14 strains, the “number of strains killed” value (Staph.Aureus [4]; 0.62 meg/ml of milk) was 51 strains and the “number of strains killed” value (Staph.Aureus [4]; 1.25 meg/ml of milk) was 15 strains. For the same compound, the “number of strains killed” value (Staph.Aureus [4]; [9]) was 1 strains, the “number of strains killed” value (Str.agalactiac; 0.02 meg/ml of milk) was 5 strains and the “number of strains killed” value (Str.agalactiac; 0.04 meg/ml of milk) was 12 strains. For the same compound, the “number of strains killed” value (Str.agalactiac; 0.08 meg/ml of milk) was 13 strains, the “number of strains killed” value (Str.agalactiac; 0.16 meg/ml of milk) was 1 strains and the “number of strains killed” value (Str.agalactiac; 0.31 meg/ml of milk) was 1 strains. For the same compound, the “number of strains killed” value (Str.agalactiac; 0.62 meg/ml of milk) was 1 strains, the “number of strains killed” value (Str.agalactiac; 1.25 meg/ml of milk) was 1 strains and the “number of strains killed” value (Str.dysgalactiae; 0.02 meg/ml of milk) was 1 strains. For the same compound, the “number of strains killed” value (Str.dysgalactiae; 0.04 meg/ml of milk) was 2 strains, the “number of strains killed” value (Str.dysgalactiae; 0.08 meg/ml of milk) was 13 strains and the “number of strains killed” value (Str.dysgalactiae; 0.16 meg/ml of milk) was 1 strains. The “number of strains killed” value (Str.dysgalactiae; 0.62 meg/ml of milk) was 1 strains, the “number of strains killed” value (Str.uberis; 0.16 meg/ml of milk) was 1 strains and the “number of strains killed” value (Str.uberis; 0.31 meg/ml of milk) was 9 strains. The “number of strains killed” value (Str.uberis; 0.62 meg/ml of milk) was 18 strains, the “number of strains killed” value (Str.uberis; 1.25 meg/ml of milk) was 2 strains and the “number of strains killed” value (Str.uberis; 5 meg/ml of milk) was 1 strains. For the same compound, the “number of strains killed” value (Str.uberis; [9]) was 1 strains, the “cured quarters, percent” value (Steph.aureus; 50 mg) was 50% and the cured quarters/treated quarters (Steph.aureus; 50 mg) was 15/30. For the same compound, the “cured quarters, percent” value (Steph.aureus; 100 mg) was 75%, the cured quarters/treated quarters (Steph.aureus; 100 mg) was 6/8 and the “cured quarters, percent” value (Steph.aureus; 250 mg) was 75%. For the same compound, the cured quarters/treated quarters (Steph.aureus; 250 mg) was 6/8, the “cured quarters, percent” value (Steph.aureus; 500 mg) was 88% and the cured quarters/treated quarters (Steph.aureus; 500 mg) was 8/9. The “cured quarters, percent” value (Str.dysgal.; 50 mg) was 62.5%, the cured quarters/treated quarters (Str.dysgal.; 50 mg) was 10/16 and the “cured quarters, percent” value (Str.dysgal.; 100 mg) was 80%. For the same compound, the cured quarters/treated quarters (Str.dysgal.; 100 mg) was 4/5, the “cured quarters, percent” value (Str.dysgal.; 250 mg) was 83% and the cured quarters/treated quarters (Str.dysgal.; 250 mg) was 5/6. For the same compound, the “cured quarters, percent” value (Str.uberls; 50 mg) was 61.5%, the cured quarters/treated quarters (Str.uberls; 50 mg) was 8/13 and the “cured quarters, percent” value (Str.uberls; 100 mg) was 80%. The cured quarters/treated quarters (Str.uberls; 100 mg) was 4/5, the “cured quarters, percent” value (Str.uberls; 250 mg) was 80% and the cured quarters/treated quarters (Str.uberls; 250 mg) was 4/5. The “cured quarters, percent” value (Str.uberls; 500 mg) was 84% and the cured quarters/treated quarters (Str.uberls; 500 mg) was 5/6.

For `Cc1cc(-c2ccc([N+](=O)[O-])o2)c2ccc(O)cc2[n+]1[O-]` [Compound 22], the MBC (Staph.Aureus [1]; [5]) was 1 µg/mL (≈ 3.49 µM), the MBC (Staph.Aureus [1]; [6]) was 0.5 µg/mL (≈ 1.75 µM) and the MBC (Strep.uberis; [7]) was 0.12 µg/mL (≈ 0.419 µM). For the same compound, the MBC (Strep.uberis; [8]) was 0.5 µg/mL (≈ 1.75 µM), the “activity in presence of milk (in words)” value [2] was “significant activity in milk” and the concentration at 24 h [3] was 20000 ng/mL. For the same compound, the “number of leucocytes … 40 hrs.” value (udder) was 5 10^6 per ml, the “number of leucocytes … 48 hrs.” value (udder) was 5 10^6 per ml and the “number of leucocytes … 56 hrs.” value (udder) was 3.15 10^6 per ml. For the same compound, the “number of leucocytes … before” value (udder) was 0.28 10^6 per ml.

Compound `COc1ccc2c(-c3ccc([N+](=O)[O-])o3)cc[n+]([O-])c2c1` [Compound 19] has an MBC (Staph.Aureus [1]; [5]) of 0.5 µg/mL (≈ 1.75 µM), an MBC (Staph.Aureus [1]; [6]) of 0.5 µg/mL (≈ 1.75 µM) and an MBC (Strep.uberis; [7]) of 0.12 µg/mL (≈ 0.419 µM). The MBC (Strep.uberis; [8]) was 0.5 µg/mL (≈ 1.75 µM), the “activity in presence of milk (in words)” value [2] was “significant activity in milk” and the concentration at 24 h [3] was 26500 ng/mL. For the same compound, the concentration at 32 h [3] was 5000 ng/mL, the “number of leucocytes … 40 hrs.” value (udder) was 5 10^6 per ml and the “number of leucocytes … 48 hrs.” value (udder) was 3 10^6 per ml. The “number of leucocytes … 56 hrs.” value (udder) was 2 10^6 per ml and the “number of leucocytes … before” value (udder) was 0.60 10^6 per ml.

Source: patent US4070469A, “Compound for the treatment of bovine mastitis” (priority 1975, dated 1978)
